pIC50: −log10 of the molar value. Values joined by “and” are separate entries in the source; they are usually repeats but may differ in a detail not shown here. Identical values can stand only once. Like-named read-outs stand apart in the source and are kept apart here. Marks after values point to notes of the source that are not given here.
Tests used:
[1] = tested on: implanted murine melanoma B16F10 tumors; conditions: cited from earlier work
[2] = up to 80 mg/d, five-year follow-up of 745 patients (14 observed, 21 predicted); cited from earlier work
[3] = tested on: murine melanoma B16/F10 cells; experiment: In vitro growth assays of lovastatin, β-ionone and γ-tocotrienol alone and combined (Table 5); format: cell-based
[4] = cited from earlier work
implanted 216 melanomas = conditions: massive intake, 733 μmol/d; Meadows, et al., 1991; cited from earlier work
[5] = tested on: established implanted B16 melanoma; experiment: Experiment 2: isoprenoid-enriched diets, survival of mice bearing established melanomas; format: in vivo, C57BL female mice; conditions: for Days survival, Mean / Days survival, Median: n = 12
Method: Where noted, β-ionone was added to the oil. The diets, mixed weekly, were stored under refrigeration. Food cups were cleaned and refilled daily.
Experiment 2: Weanling female C57BL female mice (n=60, Harlan Sprague-Dawley) were acclimated to the housing conditions and AIN-76A diet (116 μmol dl-α-tocopherol/kg diet) as described above. Tumors were implanted and the mice continued to receive the AIN-76A diet. Beginning on day 8 post-implant the mice were palpated daily for the presence of a tumor. Tumors were first detected on day 14. Random numbers were generated for assigning each mouse in a sequential subset of five to a diet. Experimental treatments provided 2 and 4 mmol d-γ-tocotrienol/kg diet. We additionally tested the impact of β-ionone (2 mmol β-ionone/kg AIN-76A diet) and that of a blend of the two isoprenoids (2 mmol each/kg diet) on the survival of the mice.
We then asked if either dietary d-γ-tocotrienol or β-ionone would prolong the survival of mice bearing implanted melanomas. Dietary treatments were initiated following the detection of solid tumors. We also asked whether these structurally diverse isoprenoids would have an additive effect on survival. The experimental groups were constructed by random assignment of each member of successive subsets of 5 mice to one of the experimental diets. […] Treatments increased median duration of survival by 42±4.5% and the mean duration of survival by 30% (P<0.005); differences between duration of survival means of the experimental groups were not significant (Table 3, FIG. 3). FIG. 3 is a survival curve for host mice receiving isoprenoid-enriched diets following the detection of a solid implanted B16 melanoma. Mean survival durations are presented on Table 4. β-ionone and γ-tocotrienol^1 treatments provided 2 mmol of the isoprenoid/kg diet; the blend provided 2 mmol of each isoprenoid/kg diet; and γ-tocotrienol^2 provided 4 mmol γ-tocotrienol/kg diet.

[6] = tested on: Murine B16(F10) melanoma cells; conditions: L. He, et al., J. Nutr. 1997; read-out: IC50, proliferation of murine melanoma B16/F10 cells; cited from earlier work
B16 melanoma cells = experiment: Paired isoprenoids, 48 hour cell count (FIG. 2A, 2B); format: cell-based, Murine
Method: (§1) Cultures, seeded with 1-1.5×10^5 cells, were incubated for 24 hours at 37° C. in a humidified atmosphere of 5% CO2. Isoprenoids, dissolved in absolute ethanol, were added at 24 hours (0 time); all cultures contained 5 mL ethanol/L ([…]). The cultures were incubated for an additional 48 hours. The media was removed and the monolayers were washed twice with Hanks' Balanced Salt Solution (Sigma) and then incubated with a trypsin-EDTA solution (Sigma) at 37° C. for 2 minutes. Trypsin was inactivated by suspending the cells in medium containing 10% fetal bovine serum (Sigma). The cells were pelleted at 250×g and resuspended in Hanks' Balanced Salt Solution. Viable cells, cells that excluded 0.4% trypan blue (GIPCOBRL), were counted with a hemocytometer; 24 hour cell counts were deducted from final cell counts to provide an estimate of the net increase in cell number.
We next determined that the effects of the isoprenoids on the growth of B16 melanoma cells in culture are additive, and in some cases, synergistic. FIG. 2A illustrates the additive effects of γ-tocotrienol and β-ionone on B16 melanoma cell populations. Values are means±SD, n=28; pooled SEM=36 (×10^4). Cell counts calculated to show the decreased population relative to the control are listed on the insert table.
FIG. 2B illustrates the additive effects of carvacrol and β-ionone on B16 melanoma cell populations. Values are means±SD, n=28; pooled SEM=62 (×10^4). Cell counts calculated to show the decreased population relative to the control are listed in the inset table. ^a-hMeans not sharing a superscript (a>b>c>d>e>f>g>h) are different (P<0.001). Referring to FIG. 2, B16 melanoma cells were incubated with β-ionone and d-γ-tocotrienol in one test (FIG. 2A). d-γ-Tocotrienol (7.5 μmol/L) and β-ionone (50 μmol/L) reduced the 48 hour cell count by 19% and 10% respectively (FIG. 2A). The 34% reduction in cell number achieved with the paired isoprenoids exceeded the 29% reduction predicted by the sum of the individual effects (FIG. 2A, inset). At higher concentrations d-γ-tocotrienol (15 μmol/L) and β-ionone (100 μmol/L) reduced the 48 hour cell count by 34% and […] respectively; the additive effect, a 68% reduction in cell number, was also greater than the sum of the individual effects (59%) (FIG. 2A, inset).
Carvacrol (50 μmol/L) and β-ionone (75 μmol/L) reduced the 48 hour cell count by 25% and 31% respectively; the additive effect, a 48% reduction in cell number, was less than the 56% reduction predicted by the sum of the individual effects. Carvacrol (100 μmol/L) and β-ionone (150 μmol/L) reduced the cell count by 35% and 65% respectively; the additive effect, an 84% reduction in cell number, again was less than the 100% reduction predicted by the sum the individual effects (FIG. 2B, inset). The reduction in cell number predicted by the sum of the individual effects of the isoprenoids was highly correlated with that achieved with the paired isoprenoids (r=0.91, n=8, P<0.01).

[7] = tested on: Murine B16(F10) melanoma cells; experiment: IC50 determinations: net increase in 48 hour melanoma cell count; format: cell-based; conditions: read-out: IC50: concentration required to suppress the increase in the population of melanoma cells by 50% during a 48 hour incubation; 48 hour incubation; means ± SD
Method: as §1
FIG. 1 is a representative evaluation of the dose-dependent impact of five different tocols on the proliferation of melanoma B16 cells. Cultures (3 mL) seeded with 1-1.5×10^5 cells were incubated for 24 hours prior to the introduction of the tocols. Viable cells were counted at 48 hours following the addition of the tocols. The cell count at 24 hours (0 time) is shown by the dashed line. The intersection of the solid horizontal line and the line plotted for each tocol indicates the concentration at which the tocol suppressed by 50% the increase in cell number during the incubation (IC50 value). IC50 values (mean, SD and n) for all isoprenoids tested are listed on Table 1. […] The growth-suppressive potency of the individual tocotrienols was inverse to the number of methyl groups on the 6-chromanol ring: d-α-tocotrienol (methyl groups at carbons 5, 7, 8 and 2)<<d-γ-tocotrienol (methyl groups at carbons 7, 8 and 2)<d-δ-tocotrienol (methyl groups at carbons 8 and 2)<<d-2-desmethyl tocotrienol (no methyl groups) (Table 1).

B16(F10) melanoma = conditions: for retardation in tumor growth: 10 days prior to and 28 days following implantation, P<0.05
Method: The first examined the impact of a diet-relevant intake of d-γ-tocotrienol on the growth of B16(F10) melanomas in host mice. […] We first prepared a basal diet mix, patterned after the AIN-76A formulation (American Institute of Nutrition, 1977) but free of corn oil and dl-α-tocopherol. These ingredients and Vitamin E-stripped corn oil were purchased from Teklad Test Diets, Madison, Wis. Stock solutions of dl-α-tocopherol (80 μmol/g) and d-γ-tocotrienol (80 μmol/g) were prepared with vitamin E-stripped corn oil. Stock solutions of the tocols, diluted with vitamin E-stripped corn oil, were mixed with the basal diet to provide finished diets containing 5% corn oil and specified tocol concentrations. Where noted, β-ionone was added to the oil. The diets, mixed weekly, were stored under refrigeration. Food cups were cleaned and refilled daily.
Experiment 1: Weanling C57BL female mice (Harlan-Sprague Dawley, Madison, Wis.) were housed in groups of four on wood shavings in plastic cages and maintained at 25° C. with a 12 hour light-dark cycle. The four groups of mice (20/group) were fed experimental diets for 10 days prior to and for 28 days following the implantation of B16 melanoma cells. The split plot design consisted of four treatments comprised of two tocols, dl-α-tocopherol and d-γ-tocotrienol, each presented at two levels, 116 and 924 μmol/kg diet. This design permitted two comparisons of diets equal in tocol content and one comparison of diets about equal in d-α-tocopherol equivalents. […] We then corrected for the biological activity of the dl-α-tocopherol mixture (70% of the activity of d-α-tocopherol) in arriving at the 8:1 tocotrienol/tocopherol ratio used in formulating the experimental diets. Melanoma cells, cultured and harvested as previously, described (Shoff, et al., 1991), were washed twice with RPMI 1640 containing 10% Fetal Bovine Sera (GIBCOBRL). The pelleted cells were suspended in RPMI 1640 and counted (98% viable) after a 1:20 dilution in 0.4% trypan blue. The cells were further diluted in RPMI 1640 (1×10^8 cells/L) and 0.1 mL of the suspension (1×10^4 cells) was injected subcutaneously into the flank of each mouse. […] The mice were killed by CO2 overdose and the tumors were excised and weighed.
Statistical Methods: StatView and SuperANOVA software (Abacus Concepts, Berkeley, Calif.) were used for the assessment of treatment-mediated effects. Treatment-mediated differences in body and tumor weights, days to tumor appearance and days to morbidity were identified with split plot analysis of variance and pairwise t-tests of least squares means. Treatment-mediated differences in days to morbidity were also assessed using parametric (paired t-test) and nonparametric (Wilcoxon signed rank) tests (Haycock, et al., 1992).
The first dietary study evaluated the impact of d-γ-tocotrienol and dl-α-tocopherol on days to detection of a solid tumor and growth of implanted B16 melanomas.

CC[C@H](C)C(=O)O[C@H]1C[C@@H](C)C=C2C=C[C@H](C)[C@H](CC[C@@H]3C[C@@H](O)CC(=O)O3)[C@H]21 [Lovastatin, [1S[1a(R),3α,7β,8β(2S,4S),8aβ]]-1,2,3,7,8,8a-hexahydro-3,7-dimethyl-8-[2-(tetrahydro-4-hydroxy-6-oxo-2H-pyran-2-yl)ethyl]-1-maphthalenyl-2-methylbutanoate, reference compound]
growth of implanted murine melanoma B16F10 tumors ([1]; 50 mg/kg administered ip on alternate days): suppressed
reduction in cancer incidence [2]: 33%
Growth ([3]; 1.5 μmol/L): 71 % of Control
decrease in cell growth ([3]; 2 μM): 50%
Growth ([3]; 2 μmol/L): 50 % of Control and 60 % of Control
Growth ([3]; 2 μmol/L, listed as lovastatin): 50 % of Control
Growth ([3]; 3 μmol/L): 53 % of Control
growth rate relative to controls ([3]; 1.9±0.3 μmol/l, protocol of He, et al.): 61.4±4.6 % the rate of controls
dose level at which the incidence and severity of toxicity increased markedly ([4]; Phase I, 7-day courses given monthly, doses 2 to 45 mg/kg): 25 mg/kg
total episodes of toxicity ([4]; sixty of 88 patients): 128 episodes

O=C1O[C@H]([C@@H](O)CO)C(O)=C1O [ascorbic acid]
growth of implanted melanomas (implanted 216 melanomas): suppressed

CC(C)=CCCC(C)=CCCC(C)=CCCC1(C)CCc2cc(O)c(C)c(C)c2O1 (stereo not drawn) [d-γ-Tocotrienol, 2,7,8-trimethyl-2-(4,8,12-trimethyltrideca-3,7,11-trienyl)-chroman-6-ol]
growth of implanted murine melanoma B16F10 tumors ([1]; 116-2000 μmol/kg diet): suppressed
further change in duration of survival on doubling the intake ([5]; 14 μmol/d versus 7 μmol/d, P=0.95): -0.21 days
Days survival, Mean ([5]; 2 mmol/kg diet): 18.67^a Days
Days survival, Median ([5]; 2 mmol/kg diet): 20.0 days
Days survival, Mean ([5]; 4 mmol/kg diet): 18.46^a Days
Days survival, Median ([5]; 4 mmol/kg diet): 22.0 days
growth of established B16 melanomas ([5]; diet providing 7 μmol/d): suppressed
increase in duration of survival ([5]; diet providing an intake of 7 μmol/d): 35%
duration of host survival ([5]; experimental diets versus control, P<0.03): significantly increased
pIC50 [6]: 4.70
reduction of 48 hour cell count (B16 melanoma cells; 7.5 μmol/L): 19%
reduction of 48 hour cell count (B16 melanoma cells; 15 μmol/L): 34%
pIC50 [7]: 4.70
Growth ([3]; 5 μmol/L): 90 % of Control
Growth ([3]; 7.5 μmol/L): 81 % of Control
Growth ([3]; 10 μmol/L): 85 % of Control and 72 % of Control
Growth ([3]; 15 μmol/L): 66 % of Control and 77 % of Control
Growth ([3]; 20 μmol/L): 65 % of Control
retardation in tumor growth (B16(F10) melanoma; 116 μmol/kg diet, isomolar substitution for dl-α-tocopherol in AIN-76A diet): 36%
retardation in tumor growth (B16(F10) melanoma; 928 μmol/kg diet, Vitamin E-equivalent substitution for dl-α-tocopherol in AIN-76A diet): 50%
days post-implant to tumor detection (B16(F10) melanoma; 928 μmol/kg diet, least mean squares analysis): differed significantly from the effects of the other treatments
28 day tumor weight, least mean squares analyses (B16(F10) melanoma; 116 and 928 μmol/kg diet): tumor growth-suppressive action
growth of the B16 melanoma implanted in the flank of host mice (B16(F10) melanoma; diet providing an intake of 0.4 μmol/d (diet-relevant intake)): suppressed
suppression of tumor growth (B16(F10) melanoma; diet providing only the d-α-tocopherol-equivalent of the AIN-76A diet): highly significant suppression

Reference: US6441029B1, “Method of suppressing tumor growth with combinations of isoprenoids and statins” (Wisconsin Alumni Research Foundation, priority 1997, dated 2002)
